Test: xn = mol fraction of the nth substance listed

COCCOCCOCCOCCOC + COC(C)=O
viscosity [mPa·s], 101 kPa
Conditions	298.15 K	308.15 K	318.15 K
x1 = 0.0089	0.382	0.344	0.325
x1 = 0.0206	0.404	0.364	0.339
x1 = 0.0384	0.439	0.392	0.365
x1 = 0.0758	0.519	0.459	0.42
x1 = 0.1174	0.61	0.539	0.484
x1 = 0.1646	0.729	0.63	0.56
x1 = 0.231	–	0.773	0.677
x1 = 0.2993	1.096	0.924	0.749
x1 = 0.3846	1.349	1.11	0.947
x1 = 0.453	1.581	1.294	1.09
x1 = 0.5398	1.854	1.503	1.254
x1 = 0.6662	2.272	1.832	1.504
x1 = 0.719	2.475	1.961	1.624
x1 = 0.7865	2.669	2.143	1.751
x1 = 0.8413	2.902	2.278	1.858
x1 = 0.8673	2.957	2.358	1.919
x1 = 0.8983	3.08	2.43	1.956
x1 = 0.9205	3.127	2.478	1.991
x1 = 0.9565	3.266	2.547	2.058

Clc1ccccc1 + COC(C)=O
viscosity [mPa·s], 101 kPa
Conditions	298.15 K	308.15 K
x2 = 0.0395	0.734	0.662
x2 = 0.1406	0.685	0.619
x2 = 0.2347	0.642	0.581
x2 = 0.3286	0.602	0.547
x2 = 0.4168	0.566	0.516
x2 = 0.4647	0.548	0.5
x2 = 0.5282	0.525	0.479
x2 = 0.6291	0.491	0.448
x2 = 0.7341	0.458	0.418
x2 = 0.8394	0.427	0.39
x2 = 0.9331	0.401	0.367

CCc1ccccc1 + COCCO
viscosity [mPa·s], 101 kPa
Conditions	298.15 K	308.15 K
x2 = 0.0558	0.65	0.548
x2 = 0.1525	0.679	0.577
x2 = 0.2511	0.717	0.612
x2 = 0.3504	0.766	0.655
x2 = 0.4525	0.831	0.708
x2 = 0.5021	0.869	0.738
x2 = 0.5522	0.911	0.771
x2 = 0.6499	1.008	0.844
x2 = 0.75	1.131	0.933
x2 = 0.853	1.291	1.043
x2 = 0.9546	1.488	1.175

Clc1ccccc1 + COCCO
303.15 K, 101.33 kPa
Conditions	viscosity [mPa·s]
x2 = 0.1075	0.749
x2 = 0.2093	0.782
x2 = 0.3086	0.836
x2 = 0.4113	0.894
x2 = 0.4993	0.952
x2 = 0.6006	1.028
x2 = 0.7032	1.113
x2 = 0.8023	1.201
x2 = 0.9234	1.309

CCCCC(CC)CN (stereo not drawn) + COCCOCCOC
viscosity [mPa·s], 101.33 kPa
Conditions	x2 = 0.0967	x2 = 0.194	x2 = 0.292	x2 = 0.391	x2 = 0.491	x2 = 0.591	x2 = 0.692	x2 = 0.794	x2 = 0.897
303.2 K	0.98	0.97	0.96	0.95	0.94	0.93	0.92	0.93	0.94
313.2 K	0.86	0.85	0.84	0.82	0.81	0.8	0.79	0.8	0.81

CCCCC(CC)CN (stereo not drawn) + COCCOCCOCCOC
viscosity [mPa·s], 101.33 kPa
Conditions	x2 = 0.0746	x2 = 0.153	x2 = 0.237	x2 = 0.326	x2 = 0.42	x2 = 0.521	x2 = 0.629	x2 = 0.744	x2 = 0.867
303.2 K	1.02	1.05	1.13	1.19	1.25	1.32	1.39	1.54	1.64
313.2 K	0.88	0.9	0.97	1.01	1.06	1.11	1.16	1.31	1.39

CCCCC(CC)CN (stereo not drawn) + COCCOCCOCCOCCOC
viscosity [mPa·s], 101.33 kPa
Conditions	x2 = 0.0607	x2 = 0.127	x2 = 0.199	x2 = 0.279	x2 = 0.368	x2 = 0.466	x2 = 0.576	x2 = 0.699	x2 = 0.84
303.2 K	1.04	1.14	1.26	1.39	1.58	1.74	1.99	2.24	2.55
313.2 K	0.89	0.97	1.07	1.16	1.3	1.43	1.59	1.87	2.09

— the CheMixHub viscosity set
